From ChEMBL document CHEMBL3784917, “Recent Progress in Histone Demethylase Inhibitors” (J Med Chem, 2016)

Experiments:
[1] = molecular target: T1, Lysine-specific demethylase 2A (Homo sapiens, UniProt Q9Y2K7); assay: Inhibition of KDM2A (unknown origin) preincubated for 15 mins followed by histone substrate addition measured after 1 hr by alphascreen assay
T1 sequence (Q9Y2K7 whole entry): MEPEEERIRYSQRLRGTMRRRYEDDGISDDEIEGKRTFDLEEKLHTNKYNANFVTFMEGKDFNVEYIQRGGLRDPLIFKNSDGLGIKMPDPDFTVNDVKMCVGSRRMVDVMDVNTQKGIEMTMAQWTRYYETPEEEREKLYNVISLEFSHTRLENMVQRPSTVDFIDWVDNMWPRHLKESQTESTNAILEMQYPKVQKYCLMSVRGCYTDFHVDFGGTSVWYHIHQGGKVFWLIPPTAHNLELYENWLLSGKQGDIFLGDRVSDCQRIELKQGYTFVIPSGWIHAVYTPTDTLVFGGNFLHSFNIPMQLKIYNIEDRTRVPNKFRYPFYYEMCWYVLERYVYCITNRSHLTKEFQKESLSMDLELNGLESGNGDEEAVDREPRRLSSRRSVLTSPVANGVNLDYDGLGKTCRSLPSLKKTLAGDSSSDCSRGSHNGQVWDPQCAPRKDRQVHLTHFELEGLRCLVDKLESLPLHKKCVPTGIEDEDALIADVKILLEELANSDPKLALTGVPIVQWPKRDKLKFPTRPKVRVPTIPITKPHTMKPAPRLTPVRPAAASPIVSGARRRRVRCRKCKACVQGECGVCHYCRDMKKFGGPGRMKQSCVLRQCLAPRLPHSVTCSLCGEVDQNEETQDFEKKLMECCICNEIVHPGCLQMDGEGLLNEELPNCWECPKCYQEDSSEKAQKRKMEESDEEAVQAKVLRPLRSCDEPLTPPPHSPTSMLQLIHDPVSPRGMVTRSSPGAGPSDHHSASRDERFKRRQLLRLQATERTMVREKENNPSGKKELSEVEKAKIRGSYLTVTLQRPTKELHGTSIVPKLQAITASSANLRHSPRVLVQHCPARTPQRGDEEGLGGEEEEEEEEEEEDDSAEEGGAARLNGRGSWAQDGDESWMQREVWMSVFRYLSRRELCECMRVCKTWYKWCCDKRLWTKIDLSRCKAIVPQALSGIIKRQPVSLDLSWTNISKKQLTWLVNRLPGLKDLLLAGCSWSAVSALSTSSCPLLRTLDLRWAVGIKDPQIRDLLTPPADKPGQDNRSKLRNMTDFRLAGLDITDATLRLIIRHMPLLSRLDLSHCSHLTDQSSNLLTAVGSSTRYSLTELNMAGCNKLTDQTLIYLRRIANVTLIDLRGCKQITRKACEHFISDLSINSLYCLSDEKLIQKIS

[2] = molecular target: T1, Lysine-specific demethylase 2A; assay: Inhibition of KDM2A (unknown origin) after 24 hrs by alphascreen assay
[3] = molecular target: T2, Lysine-specific demethylase 3A (Homo sapiens, UniProt Q9Y4C1); assay: Inhibition of KDM3A (unknown origin) after 24 hrs by alphascreen assay
T2 sequence (Q9Y4C1 whole entry): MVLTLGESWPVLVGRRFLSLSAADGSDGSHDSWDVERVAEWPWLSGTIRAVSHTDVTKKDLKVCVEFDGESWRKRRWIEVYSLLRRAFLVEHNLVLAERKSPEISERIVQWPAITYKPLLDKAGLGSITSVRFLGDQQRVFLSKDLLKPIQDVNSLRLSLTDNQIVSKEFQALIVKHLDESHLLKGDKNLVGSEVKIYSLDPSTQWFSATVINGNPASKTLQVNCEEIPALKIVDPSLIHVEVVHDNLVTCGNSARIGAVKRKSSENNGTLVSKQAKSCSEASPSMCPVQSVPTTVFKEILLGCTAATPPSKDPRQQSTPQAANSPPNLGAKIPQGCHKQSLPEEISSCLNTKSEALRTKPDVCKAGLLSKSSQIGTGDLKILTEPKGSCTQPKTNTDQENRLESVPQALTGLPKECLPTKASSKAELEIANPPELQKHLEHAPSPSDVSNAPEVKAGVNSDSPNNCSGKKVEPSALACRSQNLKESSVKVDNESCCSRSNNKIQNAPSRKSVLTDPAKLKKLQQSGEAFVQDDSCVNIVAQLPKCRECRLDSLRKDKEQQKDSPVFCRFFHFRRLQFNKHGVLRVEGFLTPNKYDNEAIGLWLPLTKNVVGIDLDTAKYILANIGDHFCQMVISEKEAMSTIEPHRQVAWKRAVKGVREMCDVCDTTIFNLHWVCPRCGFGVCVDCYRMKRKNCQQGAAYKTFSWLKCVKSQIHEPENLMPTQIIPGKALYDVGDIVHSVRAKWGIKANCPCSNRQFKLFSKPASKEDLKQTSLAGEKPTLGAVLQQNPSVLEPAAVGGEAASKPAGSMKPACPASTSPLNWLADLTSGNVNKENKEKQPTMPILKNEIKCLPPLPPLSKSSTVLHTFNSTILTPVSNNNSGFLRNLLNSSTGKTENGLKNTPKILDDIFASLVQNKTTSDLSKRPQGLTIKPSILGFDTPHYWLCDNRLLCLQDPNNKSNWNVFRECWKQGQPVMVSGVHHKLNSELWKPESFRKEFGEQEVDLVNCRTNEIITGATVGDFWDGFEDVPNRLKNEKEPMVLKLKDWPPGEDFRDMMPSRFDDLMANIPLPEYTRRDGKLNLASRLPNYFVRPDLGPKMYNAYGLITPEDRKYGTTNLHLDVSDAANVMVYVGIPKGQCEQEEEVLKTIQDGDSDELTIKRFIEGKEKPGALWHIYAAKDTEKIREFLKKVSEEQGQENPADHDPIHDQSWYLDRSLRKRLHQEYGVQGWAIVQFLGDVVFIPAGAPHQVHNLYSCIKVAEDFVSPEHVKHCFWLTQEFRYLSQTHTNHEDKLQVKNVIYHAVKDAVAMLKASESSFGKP

[4] = molecular target: Lysine-specific demethylase 5C (Homo sapiens, UniProt P41229)
Lysine-specific demethylase 5C, sequence (P41229 whole entry): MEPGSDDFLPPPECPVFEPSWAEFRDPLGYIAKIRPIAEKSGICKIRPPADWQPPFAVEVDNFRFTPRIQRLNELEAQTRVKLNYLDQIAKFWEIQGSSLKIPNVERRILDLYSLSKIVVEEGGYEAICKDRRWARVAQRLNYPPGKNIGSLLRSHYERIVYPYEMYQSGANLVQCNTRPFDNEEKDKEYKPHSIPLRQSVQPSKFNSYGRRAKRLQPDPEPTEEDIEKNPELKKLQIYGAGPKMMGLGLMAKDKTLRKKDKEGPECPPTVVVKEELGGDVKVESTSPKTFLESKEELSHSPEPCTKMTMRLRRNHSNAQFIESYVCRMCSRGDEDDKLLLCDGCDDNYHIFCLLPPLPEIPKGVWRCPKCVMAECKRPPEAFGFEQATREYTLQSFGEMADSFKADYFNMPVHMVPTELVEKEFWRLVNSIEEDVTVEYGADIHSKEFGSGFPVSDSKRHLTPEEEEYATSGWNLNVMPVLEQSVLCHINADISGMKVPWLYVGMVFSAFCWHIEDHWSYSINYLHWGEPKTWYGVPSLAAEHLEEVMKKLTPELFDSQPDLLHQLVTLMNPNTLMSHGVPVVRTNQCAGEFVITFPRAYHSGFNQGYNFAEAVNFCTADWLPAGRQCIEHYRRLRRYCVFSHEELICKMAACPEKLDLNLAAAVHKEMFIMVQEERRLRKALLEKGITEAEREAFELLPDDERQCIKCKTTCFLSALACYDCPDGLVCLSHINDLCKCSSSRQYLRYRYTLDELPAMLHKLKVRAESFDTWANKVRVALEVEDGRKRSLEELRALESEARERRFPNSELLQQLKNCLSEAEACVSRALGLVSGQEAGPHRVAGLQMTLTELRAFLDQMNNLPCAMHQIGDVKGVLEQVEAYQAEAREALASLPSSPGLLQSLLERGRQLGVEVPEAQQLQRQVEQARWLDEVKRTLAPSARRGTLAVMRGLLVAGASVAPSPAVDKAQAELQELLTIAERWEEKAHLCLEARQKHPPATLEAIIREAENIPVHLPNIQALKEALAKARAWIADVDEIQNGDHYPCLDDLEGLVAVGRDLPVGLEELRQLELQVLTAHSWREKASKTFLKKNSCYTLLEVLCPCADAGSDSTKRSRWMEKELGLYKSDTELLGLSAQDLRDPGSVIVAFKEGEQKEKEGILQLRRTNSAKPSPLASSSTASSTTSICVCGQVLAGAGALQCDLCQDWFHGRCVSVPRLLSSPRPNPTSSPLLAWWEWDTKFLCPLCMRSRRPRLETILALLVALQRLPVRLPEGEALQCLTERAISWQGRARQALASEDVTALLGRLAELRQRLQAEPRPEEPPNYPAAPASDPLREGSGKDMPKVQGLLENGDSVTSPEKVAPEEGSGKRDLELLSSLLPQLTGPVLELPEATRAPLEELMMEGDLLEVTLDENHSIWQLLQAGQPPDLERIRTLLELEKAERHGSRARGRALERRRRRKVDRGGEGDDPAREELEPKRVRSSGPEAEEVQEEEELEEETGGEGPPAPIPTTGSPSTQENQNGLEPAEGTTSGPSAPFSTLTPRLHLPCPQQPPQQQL

`Cc1ccsc1C(NC(=O)c1ccccc1)c1cc(Cl)c2cccnc2c1O` (racemic) was tested, and the IC50 [1] was 34 µM.
In the case of `CCCCCCCCOC(=O)c1ccc(O)c2ncccc12`, the IC50 [2] is reported as > 100 µM and the IC50 [3] is reported as > 100 µM.
`CCN(CCN(C)C)C(=O)CNCc1cc(C(=O)O)ccn1` was tested, and the IC50 [4] was 1 µM.
